Entries after “also recorded” stand apart in the source; their conditions may differ.
Columns and labels:
Type in all cases: in vivo, rat
serum TRACP-5b [1] = assay: Bone resorption marker (serum TRACP-5b) by ELISA, pediatric steroid-induced osteoporosis model rats; settings: after 6 weeks (age of 12 weeks)
Protocol: (§1) 6-week-old growing female LEW/Cr1Crlj rats were used.
(§2) On the other hand, a steroid-induced osteoporosis model with rats has not been established. Thus, in this Example, a model rat with Prednisolone 25 mg/pellet/60 days implanted under the skin of a 6-week-old female LEW/Cr1Crlj rat was employed as a pediatric steroid-induced osteoporosis model. In this model, it was confirmed that 2, 4 and 6 weeks after implantation of prednisolone, the femur BMD decreased, and the maximum stress of each of the femur and the lumber vertebra decreased.
(§3) (3) Experimental Group (n=10 in Each Group) (i) Sham group: Sham-operation+Vehicle (PBS) (subcutaneous administration) (ii) GC group: Prednisolone (PSL) pellet 25 mg/pellet/60 days-subcutaneous implantation (GC)+Vehicle (PBS) (subcutaneous administration) (iii) GC+Siglec-15Ab group: GC treatment was performed, and an anti-Siglec-15 antibody was subcutaneously administered once every 3 weeks at a dosage of 1 mg/kg (low dosage) or at a dosage of 10 mg/kg (high dosage). The #32A1 antibody was used as the anti-Siglec-15 antibody. […]
(§4) Before the start of administration, and 6 weeks after administration and before euthanasia, blood was collected from the tail vein, and the values of a bone formation marker (serum osteocalcin) and a bone resorption marker (serum TRACP-5b) in the blood were measured by an ELISA method.

[2] = Confirmation of the prednisolone pellet model of pediatric steroid-induced osteoporosis; settings: 2, 4 and 6 weeks after implantation of Prednisolone 25 mg/pellet/60 days
Protocol: as §2
Prednisolone 25 mg/pellet/60 days is administered at a dose of 0.42 mg a day. This dose is equivalent to 3.5 mg/kg/day for a 6-week-old rat (body weight: 120 g), and equivalent to 105 mg/day for a child having a body weight of 30 kg.

serum osteocalcin [3] = assay: Bone formation marker (serum osteocalcin) by ELISA, growing healthy rats; settings: age of 12 weeks, vs. Ct1 group
Protocol: (§5) 6-week-old growing male F344 rats were used.
(§6) (2) Experimental Groups (n=10 in Each Group) (i) Control group (hereinafter, referred to as “Ct1 group”) (ii) Anti-Siglec-15 antibody administration group (hereinafter, referred to as “Sig-15 Ab administration group”): The #32A1 antibody was used as an anti-Siglec-15 antibody. The anti-Siglec-15 antibody was subcutaneously administered once every 3 weeks at a dosage of 0.25, 1 or 4 mg/kg.
(§7) 6 weeks after the start of administration (age of 6 weeks to age of 12 weeks). After the end of the period (age of 12 weeks), the animals were euthanized, and evaluation was performed.
(§8) Before the start of administration, and 6 weeks after administration and before euthanasia, blood was collected from the tail vein, and the values of a bone formation marker (serum osteocalcin) and a bone resorption marker (serum TRACP-5b) were measured by an ELISA method.

osteoclasts [4] = assay: TRACP staining of osteoclasts, growing healthy rats; settings: age of 12 weeks, vs. Ct1 group
Protocol: as §5, §6, §7
(§9) Decalcified tissue sample: knee joint disarticulation was performed, and samples of a coronal section tissue of the proximal tibia (proximal right knee tibia ½) and a fifth lumber vertebra coronal section tissue were prepared.
(§10) Osteoclastic cells were detected and evaluated by chemical staining with tartrate-resistant acid phosphatase (TRACP) (hereinafter, referred to as “TRACP staining”) and counter staining with methyl green. The growth cartilage part was detected and evaluated by safranine O staining (staining of acidic mucopolysaccharide).

[5] = Bone mass (micro-CT, bone microstructure analysis) and BMD (DXA) of the distal femur, pediatric steroid-induced osteoporosis model rats; settings: GC model rats, age of 12 weeks
Protocol: (3) Experimental Group (n=10 in Each Group) (i) Sham group: Sham-operation+Vehicle (PBS) (subcutaneous administration) (ii) GC group: Prednisolone (PSL) pellet 25 mg/pellet/60 days-subcutaneous implantation (GC)+Vehicle (PBS) (subcutaneous administration) (iii) GC+Siglec-15Ab group: GC treatment was performed, and an anti-Siglec-15 antibody was subcutaneously administered once every 3 weeks at a dosage of 1 mg/kg (low dosage) or at a dosage of 10 mg/kg (high dosage). […] (iv) GC+ALN group: GC treatment was performed, and ALN was subcutaneously administered twice a week at a dosage of 0.014 mg/kg (low dosage) or at a dosage of 0.140 mg/kg (high dosage).
BMD and BMC measurements of the lumber vertebra and the distal left femur were performed by a DXA method using a bone densitometer (manufactured by Hitachi Medical, Ltd.).

[6] = tested on: growth cartilage and primary spongiosa region; assay: Micro-CT and histological evaluation of growth at the proximal tibia, growing healthy rats
Protocol: as §5, §6, §7
For bone labeling, calcein was administered 7 days before and 3 days before euthanasia (at an interval of 4 days). The calcein was dissolved in a 1.4% sodium bicarbonate solution at a concentration of 10 mg/ml, and subcutaneously injected to each animal at a dosage of 10 mg/kg.
(§11) Micro-CT imaging of the femur, the tibia and the fifth lumber vertebra was performed, and the right femur major axis length was measured.
Non-decalcified hard tissue sample: a coronal section tissue of proximal left tibia ½ (length: about 1.5 cm) was used. The tissue was immersed and fixed in 70% ethanol, and then stored in a cool and dark place. The resulting non-decalcified hard tissue sample was used for Villanueva staining, bright-field observation and fluorescent observation, and quantitative bone morphometry.
as §9
With the non-decalcified hard tissue sample and the decalcified tissue sample, the growth cartilage plate width and the longitudinal growth rate were histologically measured to evaluate growth disorder (“Modern Bone Histomorphometry”, 2014, WENET, Inc.).
as §10

osteoclasts [7] = assay: TRACP staining of osteoclasts in the primary spongiosa region, pediatric steroid-induced osteoporosis model rats; settings: GC model rats, proximal tibia, age of 12 weeks, vs. GC group (ALN also vs. Sham group)
Protocol: as §1, §2
(§12) (3) Experimental Group (n=10 in Each Group) (i) Sham group: Sham-operation+Vehicle (PBS) (subcutaneous administration) (ii) GC group: Prednisolone (PSL) pellet 25 mg/pellet/60 days-subcutaneous implantation (GC)+Vehicle (PBS) (subcutaneous administration) (iii) GC+Siglec-15Ab group: GC treatment was performed, and an anti-Siglec-15 antibody was subcutaneously administered once every 3 weeks at a dosage of 1 mg/kg (low dosage) or at a dosage of 10 mg/kg (high dosage). The #32A1 antibody was used as the anti-Siglec-15 antibody.
(§13) 6 weeks after the start of administration (age of 6 weeks to age of 12 weeks). After the end of the period (age of 12 weeks), the animals were euthanized, and evaluation was performed. […]

[8] = Compression mechanical test of lumber vertebral body and distal femur metaphysis, growing healthy rats; settings: age of 12 weeks, vs. Ct1 group
Protocol: as §5, §6, §7
The second, third, fourth and sixth lumber vertebral bodies and the distal metaphysis of the left femur were subjected to a compression test, and the ultimate load (maximum load endured before fracture), stiffness (resistance to deformation) and toughness (energy required before fracture) were evaluated.

[9] = Bone mass (micro-CT) and bone mineral density (DXA), growing healthy rats; settings: for BMD value (DXA) / trabecular bone mass (3D-CT): vs. Ct1 group
Protocol: as §5, §6, §7, §11
BMD measurement of the lumber vertebra (first to third lumber vertebrae) and the left distal femur end was performed by dual energy X-ray absorptiometric (DXA) method using a bone mineral density measuring apparatus (manufactured by Hitachi Aloka Medical, Ltd.).

serum osteocalcin [10] = assay: Bone formation marker (serum osteocalcin) by ELISA, pediatric steroid-induced osteoporosis model rats; settings: GC model rats, age of 12 weeks, vs. GC group
Protocol: as §1, §2, §3, §4

serum TRACP-5b [11] = assay: Bone resorption marker (serum TRACP-5b) by ELISA, growing healthy rats; settings: age of 12 weeks
Protocol: as §5, §6, §7, §8

[12] = Compression test of the distal femur end, pediatric steroid-induced osteoporosis model rats; settings: GC model rats, age of 12 weeks, vs. GC group
Protocol: as §1, §2, §12, §13

[13] = Body weight, head trunk length and femur length, pediatric steroid-induced osteoporosis model rats; settings: GC model rats
Protocol: as §1, §2, §12, §7
(§14) The head trunk length was measured 0, 3 and 6 weeks after administration. The body weight was measured once a week.
(§15) The femur length was measured under anesthesia every 3 weeks by micro-CT imaging.
(§16) Micro-CT imaging of the femur and the tibia was performed, and the right femur length was measured.

[14] = Head trunk length and femur length, growing healthy rats; settings: age of 12 weeks, vs. Ct1 group
Protocol: as §5, §6, §7, §14, §15, §11

[15] = tested on: growth cartilage and primary spongiosa region; assay: Micro-CT and histological evaluation of growth at the proximal tibia, pediatric steroid-induced osteoporosis model rats; settings: GC model rats
Protocol: as §1, §2, §12, §7
For bone labeling, tetracycline was administered 5 days before euthanasia, and calcein was administered 2 days before euthanasia (at an interval of 3 days). The animals were killed 36 hours after calcein administration. […]
as §16
Non-decalcified hard tissue sample: a coronal section tissue of proximal left tibia ½ (length: about 1.5 cm) was used. […] The non-decalcified hard tissue sample was stained by Villanueva staining and was used for bright-field observation and fluorescent observation, and quantitative bone morphometry. […]
Regarding growth disorder, there was the possibility that administration over a period of 6 weeks would not cause a change leading to generation of a difference in femur length, and therefore the growth cartilage plate width and the longitudinal growth rate were histologically measured using the non-decalcified tissue and the decalcified tissue to evaluate growth disorder (“Modern Bone Histomorphometry”, 2014, WENET, Inc.).
In FIG. 10-1(B), the part labeled in parallel to the growth cartilage and at a distal position represents the region labeled 2 days before euthanasia (white lower arrow), and the part labeled in parallel and at a further distal position represents the region labeled 5 days before euthanasia (white upper arrowhead). The bone growth rate was evaluated on the basis of the distance between the two labeled regions.

[16] = proximal tibia, age of 12 weeks, vs. Ct1 group
[17] = distal femur metaphysis compression test
[18] = lumber vertebra compression test
[19] = lumber vertebra, age of 12 weeks
[20] = age of 6 weeks to 12 weeks, vs. GC group
[21] = high-dosage administration group
[22] = proximal tibia, age of 12 weeks, vs. Sham, GC and GC+Siglec-15 Ab groups

For `C[C@]12C=CC(=O)C=C1CC[C@@H]1[C@@H]2[C@@H](O)C[C@@]2(C)[C@H]1CC[C@]2(O)C(=O)CO` [prednisolone, Prednisolone], the “increase of the level of TRACP-5b” value (serum TRACP-5b [1]; GC group (prednisolone pellet + vehicle)) was 75%, the “maximum stress of the femur” value [2] was “decreased” and the “maximum stress of the lumber vertebra” value [2] was “decreased”. The “femur BMD” value ([2]; 6-week-old female rat) was “decreased”.
For `NCCCC(O)(P(=O)(O)O)P(=O)(O)O` [ALN, Alendronate], the serum osteocalcin level (serum osteocalcin [3]) was “not significantly different”, the “number of TRACP positive cells in the secondary spongiosa region” value (osteoclasts [4]; lumber vertebra) was “decreased” and the “number of TRACP positive cells in primary spongiosa region” value (osteoclasts [4]; proximal tibia) was “evidently decreased”. For the same compound, the “number of TRACP positive cells in secondary spongiosa region” value (osteoclasts [4]; proximal tibia) was “decreased”, the “BMD of the distal femur (DXA)” value ([5]; vs. GC group) was “increased in a dosage-dependent manner” and the “bone mass (3D-CT), region immediately above the growth plate to the proximal femur” value ([5]; distal femur metaphysis) was “increased in a dosage-dependent manner”. For the same compound, the “bone mass (BV/TV)” value ([5]; secondary spongiosa region of distal femur, vs. GC group, ALN high dosage) was “significantly increased”, the “growth cartilage plate width (3D-CT image)” value ([6]; age of 12 weeks, ALN particularly high dosage) was “decreased” and the “shape of the proximal tibia in 3D-CT images” value ([6]; age of 12 weeks, vs. Ct1 group, ALN particularly high dosage) was “cup-like shape”. The “arrangement of safranine O staining positive growth cartilage regions” value ([6]; proximal tibia, age of 12 weeks) was “disordered arrangement”, the “growth cartilage width (tissue sample)” value [6, 16] was “decreased; also recorded: significantly inferior” and the “safranine O staining positive regions in the bone in the primary spongiosa region” value [6, 16] was “expanded”. For the same compound, the bone growth rate ([6]; proximal tibia, calcein labeling 7 and 3 days before euthanasia, vs. Ct1 group) was “low bone growth rate; also recorded: significantly inferior”, the “serum TRACP-5b level” value (serum TRACP-5b [1]; GC model rats, in contrast to GC group) was “significantly decreased” and the “number of TRACP positive cells in the primary spongiosa region” value (osteoclasts [7]) was “significantly decreased”. The stiffness [8, 17] was “increased in a dosage-dependent manner”, the toughness [8, 17] was “increased in a dosage-dependent manner” and the ultimate load [8, 17] was “increased in a dosage-dependent manner”. For the same compound, the stiffness [8, 18] was “significantly increased”, the ultimate load [8, 18] was “significantly increased” and the “BMD value (DXA)” value ([9]; distal femur, age of 12 weeks) was “increased depending on the dosage”. For the same compound, the “trabecular bone mass (3D-CT)” value ([9]; distal femur, age of 12 weeks) was “increased depending on the dosage”, the “bone trabecular thickness (histological)” value ([9]; long bone, particularly high-dosage group) was “increased” and the “bone mass in the primary spongiosa (3D-CT)” value [9, 19] was “particularly increased”. For the same compound, the “BMD value (DXA)” value [9, 19] was “increased depending on the dosage”, the “trabecular bone mass (3D-CT)” value [9, 19] was “increased depending on the dosage” and the serum osteocalcin level (serum osteocalcin [10]) was “not significantly different”. The “serum TRACP-5b level” value (serum TRACP-5b [11]) was “decreased depending on the dosage”, the maximum stress [12] was “tended to increase, and were not significantly different” and the toughness [12] was “tended to increase, and were not significantly different”. For the same compound, the “amount of change in body weight” value [13, 20] was “no significant difference”, the “amount of change in femur length” value [13, 20] was “no significant difference” and the “amount of change in head trunk length” value [13, 20] was “no significant difference”. For the same compound, the femur length [13, 21] was “tended to decrease”, the head trunk length [13, 21] was “tended to decrease” and the femur length [14] was “decreased”. The head trunk length [14] was “decreased”, the “shape of the proximal tibia in 3D-CT images” value ([15]; age of 12 weeks, vs. Sham group, ALN high dosage) was “cup-like (cupping) shape” and the growth cartilage width [15, 22] was “tended to slightly decrease, but was not statistically significantly different”. For the same compound, the “safranine O staining positive regions (cartilage matrix) in the bone in the primary spongiosa region” value [15, 22] was “more safranine O staining positive (red) regions” and the bone growth rate ([15]; proximal tibia, tetracycline/calcein labeling, among Sham, GC and treated groups) was “no significant difference”.

Source: patent US20200115446A1 (NATIONAL UNIVERSITY CORPORATION HOKKAIDO UNIVERSITY, priority 2017, published 2020)
